We go through one compound from ChEMBL document CHEMBL4052590, “Anti-Osteoporotic Activity of Harpagoside by Upregulation of the BMP2 and Wnt Signaling Pathways in Osteoblasts and Suppression of Differentiation in Osteoclasts” (J Nat Prod, 2017).

Activity calls are given as the source filed them. The rule behind the calls is not given here.

Assay [1] deals with Mus musculus. The assay is described as follows: Effect on osteocalcin level in serum of OVX-induced bone loss ICR mouse model at 10 ug/kg, po via gavage for 12 weeks by ELISA (reference value: 176.9 +/- 4.7 ng/ml). It counts as functional. (ELISA stands for enzyme-linked immunosorbent assay.)
Assay [2] deals with Mus musculus. Description: Effect on TRAP activity in serum of OVX-induced bone loss ICR mouse model at 10 ug/kg, po via gavage for 12 weeks (reference value: 19.8 +/- 1.0 U/L). It counts as functional.
In assay [3] the test system is Mus musculus. Description: Effect on C-terminal telopeptide level in serum of OVX-induced bone loss ICR mouse model at 10 ug/kg, po via gavage for 12 weeks by ELISA (reference value: 95.7 +/- 3.8 ng/ml). It counts as functional.
For assay [4], the system named is Mus musculus. The assay is described as follows: Effect on […] level in serum of OVX-induced bone loss ICR mouse model at 10 ug/kg, po via gavage for 12 weeks by ELISA (reference value: 8.2 +/- 0.4 mg/dl). It counts as functional.
Assay [5] deals with Mus musculus. The assay is described as follows: Anti-osteoporotic activity in OVX-induced bone loss ICR mouse model assessed as decrease in trabecular bone destruction in femur at 10 ug/kg, po administered for 12 weeks via gavage by microcomputed tomography. It is filed as functional, organism-based.
Assay [6] has as its system Mus musculus. Description: Effect on alkaline phosphatase activity in serum of OVX-induced bone loss ICR mouse model at 10 ug/kg, po via gavage for 12 weeks using p-NPP as substrate (reference value: 84.9 +/- 4.2 U/L). It counts as functional.
The test system of assay [7] is Mus musculus. The assay is described as follows: Effect on calcium level in serum of OVX-induced bone loss ICR mouse model at 10 ug/kg, po via gavage for 12 weeks by ELISA (reference value: 9.3 +/- 0.3 mg/dl). It counts as functional.

Regarding `C[C@]12CC[C@@H]3c4ccc(O)cc4CC[C@H]3[C@@H]1CC[C@@H]2O` [ESTRADIOL], the Activity with Mus musculus [1] was determined as 141.9 ng/mL; with Mus musculus [2] it was 10.8 U/L; in the assay on Mus musculus [3], 76.6 ng/mL; in the assay with Mus musculus [4], 7.9 mg/dL; in the assay with Mus musculus [6], 59.9 U/L; with Mus musculus [7] it was 9.1 mg/dL. Further, the result in the assay with Mus musculus [5] was Active.
